What follows are compounds tested against hOGG1 (Homo sapiens, UniProt O15527) (assay: Biochemical fluorescence assay to measure enzymatic activity of hOGG1 (OGG1/APEX IC50)). Conditions: 1 nM OGG1+2 nM APEX+6 nM dsDNA (8-oxo-dG substrate); pH 7.5; RT 40 min; read-out: OGG1/APEX IC50.
hOGG1, sequence (O15527 12-323): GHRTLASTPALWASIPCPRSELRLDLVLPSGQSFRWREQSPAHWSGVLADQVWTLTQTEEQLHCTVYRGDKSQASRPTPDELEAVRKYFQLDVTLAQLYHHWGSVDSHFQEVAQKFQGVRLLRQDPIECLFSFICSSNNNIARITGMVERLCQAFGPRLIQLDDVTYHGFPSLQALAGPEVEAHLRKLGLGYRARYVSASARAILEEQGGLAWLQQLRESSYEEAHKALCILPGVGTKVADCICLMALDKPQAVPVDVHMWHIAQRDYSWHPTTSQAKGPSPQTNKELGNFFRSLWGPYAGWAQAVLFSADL
Set-up: Protein His-hOGG1 (12-323) was prepared; His (N); host or cells: E. coli
Summary of the method: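 Coupled glycosylase/AP-endonuclease read-out: 8-oxo-dG-containing dsDNA (6 nM) cleaved by 1 nM His-hOGG1 (12-323) plus 2 nM APEX1 over 40 min at room temperature, after 20 min enzyme–compound preincubation; buffer 20 mM Tris pH 7.5, 100 mM KCl, 0.1% BSA, 0.01% Tween. IC50 comes from sigmoidal 3-parameter fitting of % inhibition derived from TAMRA signal.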
For `COc1cc(NC(=O)[C@H]2CC[C@@H](N3Cc4c(C)cc(NCC5CNC5)cc4C3=O)CC2)ccc1C` [Example 195, (1s,4s)-4-(6-(Azetidin-3-ylmethylamino)-4-methyl-1-oxoisoindolin-2-yl)-N-(3-methoxy-4-methylphenyl)cyclohexanecarboxamide], the IC50 was less than 100 nM. `Cc1ccc(NC(=O)[C@H]2CC[C@@H](N3Cc4c(C)cccc4C3=O)CC2)c(O)c1` [Example 230, (1s,4s)-N-(2-Hydroxy-4-methylphenyl)-4-(4-methyl-1-oxoisoindolin-2-yl)cyclohexanecarboxamide] gave an IC50 of 1000 to 10000 nM. For `Cc1cc(NCCN(C)C)cc2c1CN([C@H]1CC[C@@H](C(=O)Nc3nc4ccccc4s3)CC1)C2=O` [Example 129, (1s,4s)-N-(Benzo[d]thiazol-2-yl)-4-(6-((2-(dimethylamino)ethyl)amino)-4-methyl-1-oxoisoindolin-2-yl)cyclohexane-1-carboxamide], the IC50 was 100 to 1000 nM. `COc1cc(NC(=O)[C@H]2CC[C@@H](N3Cc4c(C)cc(C(=O)NCCN(C)C)cc4C3=O)CC2)ccc1C` [Example 217, N-(2-(Dimethylamino)ethyl)-2-((1s,4s)-4-(3-methoxy-4-methylphenylcarbamoyl)cyclohexyl)-7-methyl-3-oxoisoindoline-5-carboxamide] was tested, and the IC50 was less than 100 nM. For `COc1cc(NC(=O)[C@H]2CC[C@@H](N3Cc4c(C)cc(C(=O)O)cc4NC3=O)CC2)ccc1C` [Example 79, 3-((1s,4s)-4-(3-methoxy-4-methylphenylcarbamoyl)cyclohexyl)-5-methyl-2-oxo-1,2,3,4-tetrahydroquinazoline-7-carboxylic Acid], the IC50 was 100 to 1000 nM. With `COc1cc(NC(=O)[C@H]2CC[C@@H](N3Cc4c(C)cnc(Cl)c4NC3=O)CC2)ccc1C` [Example 32, (1s,4s)-4-(8-Chloro-5-methyl-2-oxo-1,2-dihydropyrido[3,4-d]pyrimidin-3(4H)-yl)-N-(3-methoxy-4-methylphenyl)cyclohexanecarboxamide] the IC50 was less than 100 nM. In the case of `O=C1c2cccc(Br)c2CN1[C@H]1CC[C@@H](C(=O)Nc2ccc3c(c2)OC(F)(F)O3)CC1` [Example 186, (1s,4s)-4-(4-Bromo-1-oxoisoindolin-2-yl)-N-(2,2-difluorobenzo[d][1,3]dioxol-5-yl)cyclohexanecarboxamide], the IC50 is reported as greater than 10000 nM. Work on `COc1cc(NC(=O)[C@H]2CC[C@@H](N3Cc4c(Br)cc(NCC5CNC5)cc4C3=O)CC2)ccc1C` [Example 177, (1s,4s)-4-(6-(Azetidin-3-ylmethylamino)-4-bromo-1-oxoisoindolin-2-yl)-N-(3-methoxy-4-methylphenyl)cyclohexanecarboxamide] yielded an IC50 of less than 100 nM. `COc1cc(NC(=O)[C@H]2CC[C@H](N3Cc4c(C)cc(COC5CNC5)cc4NC3=O)CC2)ccc1C` [Example 111, (1r,4r)-4-(7-((azetidin-3-yloxy)methyl)-5-methyl-2-oxo-1,2-dihydroquinazolin-3(4H)-yl)-N-(3-methoxy-4-methylphenyl)cyclohexanecarboxamide] showed an IC50 greater than 10000 nM. `COc1cc(NC(=O)[C@H]2CC[C@@H](N3Cc4c(C)cc(C5=CCNCC5)cc4C3=O)CC2)ccc1C` [Example 146, (1s,4s)-N-(3-Methoxy-4-methylphenyl)-4-(4-methyl-1-oxo-6-(1,2,3,6-tetrahydropyridin-4-yl)isoindolin-2-yl)cyclohexanecarboxamide] showed an IC50 of less than 100 nM. `COc1cc(NC(=O)[C@H]2[C@@H]3C[C@@H](N4Cc5c(Br)cccc5C4=O)C[C@@H]32)ccc1C` (single isomer, unassigned) [Example 270] showed an IC50 greater than 10000 nM. For `COc1cc(NC(=O)[C@H]2CC[C@@H](N3Cc4c(Br)cc(NC(=O)CN5CCOCC5)cc4C3=O)CC2)ccc1C` [Example 199, (1s,4s)-4-(4-Bromo-6-(2-morpholinoacetamido)-1-oxoisoindolin-2-yl)-N-(3-methoxy-4-methylphenyl)cyclohexanecarboxamide], the IC50 was 100 to 1000 nM. For `COc1cc(NC(=O)[C@H]2CC[C@@H](N3Cc4c(Br)cccc4NC3=O)CC2)ccc1C` [Example 66, (1s,4s)-4-(5-bromo-2-oxo-1,2-dihydroquinazolin-3(4H)-yl)-N-(3-methoxy-4-methylphenyl)cyclohexanecarboxamide], the IC50 was 100 to 1000 nM. In the case of `Cc1cccc2c1CN([C@H]1CC[C@@H](C(=O)Nc3ccc(Cl)c(Cl)c3)CC1)C2=O` [Example 237, (1s,4s)-N-(3,4-Dichlorophenyl)-4-(4-methyl-1-oxoisoindolin-2-yl)cyclohexanecarboxamide], the IC50 is reported as 100 to 1000 nM. For `COc1cc(NC(=O)[C@H]2CC[C@@H](n3oc4c(Br)cccc4c3=O)CC2)ccc1C` [Example 184, (1s,4s)-4-(7-Bromo-3-oxobenzo[d]isoxazol-2(3H)-yl)-N-(3-methoxy-4-methylphenyl)cyclohexanecarboxamide], the IC50 was greater than 10000 nM. Work on `COc1cc(NC(=O)[C@H]2CC[C@@H](N3Cc4c(Br)ccc(Cl)c4C3=O)CC2)ccc1C` [Example 142, (1s,4s)-4-(4-Bromo-7-chloro-1-oxoisoindolin-2-yl)-N-(3-methoxy-4-methylphenyl)cyclohexanecarboxamide] yielded an IC50 of 100 to 1000 nM. For `CCc1ccc(NC(=O)[C@H]2CC[C@@H](N3Cc4c(C)cccc4C3=O)CC2)cc1C#N` [Example 128, (1s,4s)-N-(3-Cyano-4-ethylphenyl)-4-(4-methyl-1-oxoisoindolin-2-yl)cyclohexane-1-carboxamide], the IC50 was 100 to 1000 nM. Work on `COc1ccc(NC(=O)[C@H]2CC[C@@H](N3Cc4c(C)cccc4C3=O)CC2)c(F)c1` [Example 242, (1s,4s)-N-(2-Fluoro-4-methoxyphenyl)-4-(4-methyl-1-oxoisoindolin-2-yl)cyclohexanecarboxamide] yielded an IC50 of 1000 to 10000 nM. `COc1cc(NC(=O)[C@H]2CC[C@@H](N3Cc4c(C)cc(O)cc4NC3=O)CC2)ccc1C` [Example 77, (1s,4s)-4-(7-hydroxy-5-methyl-2-oxo-1,2-dihydroquinazolin-3(4H)-yl)-N-(3-methoxy-4-methylphenyl)cyclohexanecarboxamide] showed an IC50 of less than 100 nM. `COc1cc(NC(=O)[C@H]2CC[C@@H](N3Cc4c(C)cc(NCCN(C)C)cc4C3=O)CC2)ccc1C` [Example 208, (1s,4s)-4-(6-(2-(Dimethylamino)ethylamino)-4-methyl-1-oxoisoindolin-2-yl)-N-(3-methoxy-4-methylphenyl)cyclohexanecarboxamide] showed an IC50 of less than 100 nM. With `Cc1cc(NC(=O)[C@H]2CC[C@@H](N3Cc4c(C)cccc4C3=O)CC2)ccc1O` [Example 220, (1s,4s)-N-(4-Hydroxy-3-methylphenyl)-4-(4-methyl-1-oxoisoindolin-2-yl)cyclohexanecarboxamide] the IC50 was 100 to 1000 nM. `COc1cc(NC(=O)[C@H]2CC[C@H](N3Cc4c(C)cc(NCCN(C)C)cc4NC3=O)CC2)ccc1C` [Example 85, (1r,4r)-4-(7-(2-(dimethylamino)ethylamino)-5-methyl-2-oxo-1,2-dihydroquinazolin-3(4H)-yl)-N-(3-methoxy-4-methylphenyl)cyclohexanecarboxamide] was tested, and the IC50 was 100 to 1000 nM. `CCc1ccc(NC(=O)[C@H]2CC[C@@H](N3Cc4c(C)cccc4NC3=O)CC2)cc1C#N` [Example 94, (1s,4s)-N-(3-cyano-4-ethylphenyl)-4-(5-methyl-2-oxo-1,2-dihydroquinazolin-3(4H)-yl)cyclohexanecarboxamide] was tested, and the IC50 was 100 to 1000 nM. With `Cc1cccc2c1CN([C@H]1CC[C@@H](C(=O)Nc3ccc(=O)[nH]c3)CC1)C2=O` [Example 251, (1s,4s)-4-(4-Methyl-1-oxoisoindolin-2-yl)-N-(6-oxo-1,6-dihydropyridin-3-yl)cyclohexanecarboxamide] the IC50 was greater than 10000 nM. Work on `Cc1cnc(NC(=O)[C@H]2CC[C@@H](N3Cc4c(C)cccc4C3=O)CC2)s1` [Example 235, (1s,4s)-4-(4-Methyl-1-oxoisoindolin-2-yl)-N-(5-methylthiazol-2-yl)cyclohexanecarboxamide] yielded an IC50 greater than 10000 nM. Work on `C=Cc1ccc2c(c1C)CN([C@H]1CC[C@@H](C(=O)Nc3ccc(C)c(OC)c3)CC1)C(=O)N2` [Example 53, (1s,4s)-N-(3-methoxy-4-methylphenyl)-4-(5-methyl-2-oxo-6-vinyl-1,2-dihydroquinazolin-3(4H)-yl)cyclohexanecarboxamide] yielded an IC50 of 1000 to 10000 nM. `COc1ccc(NC(=O)[C@H]2CC[C@@H](N3Cc4c(C)cccc4C3=O)CC2)cn1` [Example 249, (1s,4s)-N-(6-Methoxypyridin-3-yl)-4-(4-methyl-1-oxoisoindolin-2-yl)cyclohexanecarboxamide] showed an IC50 of 1000 to 10000 nM. With `COc1cc(NC(=O)[C@H]2CC[C@@H](N3Cc4ccccc4C3=O)CC2)ccc1C` [Example 148, (1s,4s)-N-(3-Methoxy-4-methylphenyl)-4-(1-oxoisoindolin-2-yl)cyclohexanecarboxamide] the IC50 was 1000 to 10000 nM. In the case of `COc1ccc(NC(=O)[C@H]2CC[C@@H](N3Cc4c(C)cccc4NC3=O)CC2)cc1Cl` [Example 88, (1s,4s)-N-(3-chloro-4-methoxyphenyl)-4-(5-methyl-2-oxo-1,2-dihydroquinazolin-3(4H)-yl)cyclohexanecarboxamide], the IC50 is reported as less than 100 nM. For `COc1c(F)cc(NC(=O)[C@H]2CC[C@@H](N3Cc4c(C)cccc4C3=O)CC2)cc1F` [Example 243, (1s,4s)-N-(3,5-Difluoro-4-methoxyphenyl)-4-(4-methyl-1-oxoisoindolin-2-yl)cyclohexanecarboxamide], the IC50 was 100 to 1000 nM. `COc1cc(NC(=O)[C@H]2CC[C@@H](N3Cc4c(C)cc([N+](=O)[O-])cc4C3=O)CC2)ccc1C` [Example 167, (1s,4s)-N-(3-Methoxy-4-methylphenyl)-4-(4-methyl-6-nitro-1-oxoisoindolin-2-yl)cyclohexanecarboxamide] showed an IC50 of less than 100 nM. Compound `COc1cc(NC(=O)[C@H]2CC[C@@H](N3Cc4c(cccc4C(F)F)C3=O)CC2)ccc1C` [Example 172, (1s,4s)-4-(4-(Difluoromethyl)-1-oxoisoindolin-2-yl)-N-(3-methoxy-4-methylphenyl)cyclohexanecarboxamide] has an IC50 of 1000 to 10000 nM.
